The values that follow come from patent US10590143B2, “Herbicidally active (alkynyl-phenyl)-substituted cyclic dione compounds and derivatives thereof” (Syngenta Limited, priority 2013, dated 2020).

Holding throughout (assay): Biological Example 3 glasshouse assay for herbicidal activity, using various adjuvant systems
Common to all, as to format: in vivo
Settings in all cases: post-emergence, 8 g/ha, 14 or 15 DAA; adjuvant 0.5% v/v + 1.0% AMS + 12.5% IPA: TEHP (A3-A7), Adigor (A8, P1, P2, P4), Hexamoll DINCH (A1)

The test system of assay [1] is Digitaria sanguinalis (DIGSA). On the procedure:
(§1) • Materials and Methods • Herbicide Application: Post-emergence foliar spray application, 200 L/ha, usually one or two replicates for the weeds (depending on application rate), and two replicates for soybean. • Climate: Standard warm conditions (tropical), in glasshouse. Specifically, the glasshouse bay conditions are 24° C./18° C. day/night; 16/8 hours light/dark; 65% humidity. • Plants: The herbicidal application takes place at the following growth stages for plants which include inter alia one or more of the following plants (usually the herbicidal application takes place on at least the following plants: DIGSA, ELEIN, SETFA, ZEAMX, GLXMA Nikko, and GLXMA TMG133, and often also either BRADC or BRAPP): • Brachiaria decumbens (BRADC)—growth stage (GS) 12 or 13 (or GS 12)—or, if BRADC is not used, then usually Brachiaria platyphylla (BRAPP)—growth stage 12 or 13 • Digitaria sanguinalis (DIGSA)—growth stage 12 or 13 • Eleusine indica (ELEIN)—growth stage 12 or 13 • Setaria faberi (SETFA)—growth stage 12 or 13 • Echinochloa crus-galli (ECHCG)—growth stage 12 or 13 • Sorghum halepense (annual) (SORHA)—growth stage 12 or 13 • Panicum dichotomiflorum (PANDI)—growth stage 12 or 13 • Zea mays (ZEAMX, maize/corn, e.g. can occur as volunteer corn) cultivar “Garland”—growth stage 12 or 13 • Glycine max (GLXMA, soybean) cultivar “Nikko”—growth stage: 1st trifoliate • Glycine max (GLXMA, soybean) cultivar “TMG133”—which is Roundup Ready™ glyphosate-tolerant soybean cultivar TMG133 (typically available from Monsanto in Brazil)—growth stage: 1st trifoliate. • Herbicidal Compositions Tested:
(§2) Each test compound is applied with one of the following adjuvant systems (all percentages are final concentrations in the aqueous spray mixture): • Adjuvant system 1: 0.5% v/v Adigor™*, 1.0% v/v AMS (ammonium sulphate) and 12.5% v/v IPA (isopropyl alcohol). • Adjuvant system 2: 0.5% v/v Hexamoll™ DINCH**, 1.0% v/v AMS (ammonium sulphate) and 12.5% v/v IPA (isopropyl alcohol). • Adjuvant system 3: 0.5% v/v tris-(2-ethylhexyl)phosphate (“TEHP”), 1.0% v/v AMS (ammonium sulphate) and 12.5% v/v IPA (isopropyl alcohol). ***Adigor™ (currently available in many countries from Syngenta) is an emulsifiable concentrate which consists of: • (i) ethoxylated alcohols, which typically includes ethoxylated higher alcohols (e.g. ethoxylates of alcohols wherein the alcohols are within the range of C12-C22); and • (ii) a mixture of heavy aromatic hydrocarbons, which typically includes (e.g. includes 50% or more by weight of the heavy aromatic hydrocarbons of) a mixture of naphthalenes each of which is substituted by one or more alkyls wherein the alkyl(s) in total have 1-4 carbon atoms per naphthalene molecule (e.g. Solvesso 200 ND™); and • (iii) about 47% w/w and/or about 45% w/v (with respect to the emulsifiable concentrate) of methylated rapeseed oil (rapeseed oil methyl ester) (e.g. Agnique ME 18 RD-F™), as an adjuvant. **Hexamoll™ DINCH™ is 1,2-cyclohexane dicarboxylic acid di-isononyl ester
(§3) Seeds of the weed (including volunteer) plants, typically including inter alia Digitaria sanguinalis (DIGSA), Eleusine indica (ELEIN), Setaria faberi (SETFA), Zea mays (ZEAMX, corn), and sometimes also [either Brachiaria decumbens (BRADC) or Brachiaria platyphylla (BRAPP)], are sown in seed trays (troughs) containing clay loam soil (pH 7.0, 2.2% organic matter, “Trough Mix A”); and soybean seed is sown in pots containing the same soil with 3 soybean seedlings per pot. The plants are sprayed with the test herbicide when they reach the growth stages mentioned above.
(§4) The test herbicidal solutions are prepared by mixing the appropriate aliquots of the test substance(s) and one of the adjuvant systems indicated above*** in deionised water to give the desired treatment concentration.
(§5) The herbicidal application is made as a foliar spray, using a tracksprayer. Following the herbicidal application, the plants are watered twice per day for the duration of the test. […]

The test system of assay [2] is Brachiaria decumbens (BRADC). How it is done:
as §1, §2, §3, §4, §5

The test system of assay [3] is Eleusine indica (ELEIN). How it is done:
as §1, §2, §3, §4, §5

Assay [4] deals with Setaria faberi (SETFA). On the procedure: as §1, §2, §3, §4, §5

With `CC#Cc1cc(F)c(C2=C(OC(=O)C(C)(C)C)C3CCC(C3)C2=O)c(OC)c1` (centres unmarked) [Compound P1], in assay [1], the “percentage control of (percentage phytotoxicity on) Digitaria sanguinalis (DIGSA)” value came out at 70%.

For `COc1cc(C#CCl)cc(F)c1C1C(=O)C2CCC(C2)C1=O` (centres unmarked) [Compound A8, 3-[4-(2-chloroethynyl)-2-fluoro-6-methoxy-phenyl]bicyclo[3.2.1]octane-2,4-dione], the “percentage control of (percentage phytotoxicity on) Brachiaria decumbens (BRADC)” value in assay [2] is listed as 15%. In addition, the “percentage control of (percentage phytotoxicity on) Eleusine indica (ELEIN)” value in assay [3] amounted to 5%. In addition, the “percentage control of (percentage phytotoxicity on) Digitaria sanguinalis (DIGSA)” value in assay [1] amounted to 30%. Also, the “percentage control of (percentage phytotoxicity on) Setaria faberi (SETFA)” value in assay [4] is 10%.
